The record followed here is patent US20260070945A1, “MACROCYCLIC IMMUNOMODULATORS” (Bristol-Myers Squibb Company, priority 2022, published 2026).

The structures appear in SMILES notation. pIC50: −log10 of the molar value. *1 amine or outer side, *2 acyl side, *3 side chain or, on linkers, in order; H or OH if unused. Where a SMILES comes first, the peptide text is derived from it. Bridges are numbered along the chain shown (N, C = ends). [ ]: non-standard residue; d: D form. The star is where a group is joined. ξ: configuration not given here. Phe(3-CF3) = N[C@@H](Cc1cccc(C(F)(F)F)c1)C(=O)O; Phe(4-COOH) = N[C@@H](Cc1ccc(C(=O)O)cc1)C(=O)O; Bip = N[C@@H](Cc1ccc(-c2ccccc2)cc1)C(=O)O; NH(CH2)14COOH = O=C(O)CCCCCCCCCCCCCCN*; Phe(3-Me) = Cc1cccc(C[C@H](N)C(=O)O)c1; γGlu = O=C(O)[C@H](CCC(=O)[*:2])N[*:1]; Abu(3S-NH2) = C[C@H](N)[C@H](N)C(=O)O; NH(CH2)12COOH = O=C(O)CCCCCCCCCCCCN*; Val(3-OH) = CC(C)(O)[C@H](N)C(=O)O; hArg = N=C(N)NCCCC[C@H](N)C(=O)O; 2Thi = N[C@@H](Cc1cccs1)C(=O)O; Cha = N[C@@H](CC1CCCCC1)C(=O)O; Cit = NC(=O)NCCC[C@H](N)C(=O)O; Ile(3ξ) = CCC(C)[C@H](N)C(=O)O; Thr(3ξ) = CC(O)[C@H](N)C(=O)O; 12Ado = NCCCCCCCCCCCC(=O)O; hSer = N[C@@H](CCO)C(=O)O; Carboxymethyl = O=C(O)C*; NMeA = CN[C@@H](C)C(=O)O; Aun = NCCCCCCCCCCC(=O)O; Dab = NCC[C@H](N)C(=O)O; AEEA = NCCOCCOCC(=O)O; Aoc = NCCCCCCCC(=O)O

The target of the first test is T1, PD-1/PD-L1 interaction (PE-labeled human PD-L1-Ig binding to Jurkat cell line over-expressing human PD-1) (Homo sapiens, UniProt Q15116).
T1 construct: expressed in transfected cells; host or cells: Jurkat
T1 sequence (Q15116 25-288): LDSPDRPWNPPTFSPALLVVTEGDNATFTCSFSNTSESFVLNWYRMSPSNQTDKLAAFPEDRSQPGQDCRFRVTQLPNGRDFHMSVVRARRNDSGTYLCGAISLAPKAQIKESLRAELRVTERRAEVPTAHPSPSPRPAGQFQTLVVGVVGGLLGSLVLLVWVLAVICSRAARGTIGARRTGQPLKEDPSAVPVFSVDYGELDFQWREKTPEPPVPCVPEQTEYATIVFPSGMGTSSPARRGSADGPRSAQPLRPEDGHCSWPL
As to the kind of experiment: Jurkat-PD-1 Cell Binding High-Content Screening Assay (CBA). As to conditions: Jurkat-hPD-1 cells, PE-labeled PD-L1-Ig 20 nM final; read-out: Jurkat HPD1 PDL1 IC50. On the procedure:
Example 2: Jurkat-PD-1 Cell Binding High-Content Screening Assay (CBA)
Phycoerythrin (PE) was covalently linked to the Ig epitope tag of human PD-L1-Ig and fluorescently-labeled PD-L1-Ig was used for binding studies with a Jurkat cell line over-expressing human PD-1 (Jurkat-PD-1). Briefly, 8×10^3 Jurkat-hPD-1 cells were seeded into 384 well plates in 20 μl of DMEM supplemented with 10% fetal calf serum. 100 nl of compound was added to cells followed by incubation at 37° C. for 2 hours. Then, 5 μl of PE-labeled PD-L1-Ig (20 nM final), diluted in DMEM supplemented with 10% fetal calf serum. After 1 hour incubation, cells were fixed with […] in dPBS containing 10 μg/ml Hoechst 33342 and then washed 3× in 100 μl dPBS. Data was collected and processed using a Cell Insight NXT High Content Imager and associated software.
`CCC(C)[C@@H]1NC(=O)[C@H](Cc2ccc(-c3ccccc3)cc2)NC(=O)[C@H](CC(C)C)NC(=O)[C@H](Cc2c[nH]c3ccccc23)NC(=O)[C@H](CC(=O)O)NC(=O)[C@H](Cc2ccc(C(=O)O)cc2)NC(=O)[C@H](Cc2ccc(OCC(=O)O)cc2)NC(=O)CSC[C@@H](C(=O)NCCCCCCCCCCC(=O)O)NC(=O)[C@H](CCCNC(=N)N)NC(=O)[C@H](C(C)C)NC(=O)[C@H](CC2CCCCC2)NC(=O)[C@H](CCN)NC(=O)[C@@H](CC(C)C)NC(=O)[C@H](C)N(C)C1=O` (stereo partly drawn) [Example 2237] ({CH2CO}-Y(Carboxymethyl)[Phe(4-COOH)]DWL[Bip][Ile(3ξ)][NMeA][dL][Dab][Cha]VRC[Aun]-OH; thioether N-14): the pIC50 is 7.82. On the same count and under the same terms, under `Cc1cccc(C[C@@H]2NC(=O)[C@H](CC(=O)O)NC(=O)[C@H](Cc3ccc(OCC(=O)O)cc3)NC(=O)[C@H](C(C)O)NC(=O)CSC[C@@H](C(=O)N[C@@H](CCN)C(=O)NCCCCCCCCCCC(=O)O)NC(=O)[C@H](CCO)NC(=O)[C@H](C(C)C)NC(=O)[C@H](CC3CCCCC3)NC(=O)[C@H](CCN)NC(=O)[C@@H](CC(C)C)NC(=O)[C@H](C)N(C)C(=O)[C@H](Cc3ccc(OCC(=O)O)cc3)NC(=O)[C@H](Cc3ccc(-c4ccccc4)cc3)NC(=O)[C@H](CCCNC(N)=O)NC2=O)c1` (stereo partly drawn) [Example 2348] ({CH2CO}-[Thr(3ξ)]Y(Carboxymethyl)D[Phe(3-Me)][Cit][Bip]Y(Carboxymethyl)[NMeA][dL][Dab][Cha]V[hSer]C[Dab][Aun]-OH; thioether N-14) stands 7.52. Turning to `CCC(C)[C@@H]1NC(=O)[C@H](Cc2ccc(-c3ccccc3)cc2)NC(=O)[C@H](CC(C)C)NC(=O)[C@H](Cc2c[nH]c3ccccc23)NC(=O)[C@H](CC(=O)O)NC(=O)[C@H](Cc2ccc(OCC(=O)O)cc2)NC(=O)[C@H](CCCCNC(=N)N)NC(=O)CSC[C@@H](C(=O)NCCOCCOCC(=O)N[C@@H](CCN)C(=O)NCCCCCCCCCCC(=O)O)NC(=O)[C@H](CCCCN)NC(=O)[C@H](C(C)C)NC(=O)[C@H](CC2CCCCC2)NC(=O)[C@H](CCN)NC(=O)[C@@H](C)NC(=O)[C@H](C)N(C)C1=O` (stereo partly drawn) [Example 2185] ({CH2CO}-[hArg]Y(Carboxymethyl)DWL[Bip][Ile(3ξ)][NMeA][dA][Dab][Cha]VKC[AEEA][Dab][Aun]-OH; thioether N-14), the pIC50 is 7.40.

Consider `Cc1cccc(C[C@@H]2NC(=O)[C@H](CC(=O)O)NC(=O)[C@H](Cc3ccc(C(=O)O)cc3)NC(=O)[C@H](Cc3ccc(OCC(=O)O)cc3)NC(=O)CSC[C@@H](C(=O)NCCOCCOCC(=O)NCCCCCCCCCCC(=O)O)NC(=O)[C@H](CCO)NC(=O)[C@H](C(C)C)NC(=O)[C@H](CC3CCCCC3)NC(=O)[C@H](CCN)NC(=O)[C@@H](CC(C)C)NC(=O)[C@H](C)N(C)C(=O)[C@H](C(C)C)NC(=O)[C@H](Cc3ccc(-c4ccccc4)cc3)NC(=O)[C@H](C(C)C)NC2=O)c1` [Example 2217] ({CH2CO}-Y(Carboxymethyl)[Phe(4-COOH)]D[Phe(3-Me)]V[Bip]V[NMeA][dL][Dab][Cha]V[hSer]C[AEEA][Aun]-OH; thioether N-14), for which the pIC50 is 7.94. Take `Cc1cccc(C[C@@H]2NC(=O)[C@H](CC(=O)O)NC(=O)[C@H](Cc3c[nH]cn3)NC(=O)[C@H](Cc3ccc(OCC(=O)O)cc3)NC(=O)CSC[C@@H](C(=O)NCCCCCCCCCCC(=O)O)NC(=O)[C@H](CCC(N)=O)NC(=O)[C@H](C(C)C)NC(=O)[C@H](CC3CCCCC3)NC(=O)[C@H](CCN)NC(=O)[C@@H](CC(C)C)NC(=O)[C@H](C)N(C)C(=O)[C@H](Cc3ccc(O)cc3)NC(=O)[C@H](Cc3ccc(-c4ccccc4)cc3)NC(=O)[C@H](CC(C)C)NC2=O)c1` [Example 2251] ({CH2CO}-Y(Carboxymethyl)HD[Phe(3-Me)]L[Bip]Y[NMeA][dL][Dab][Cha]VQC[Aun]-OH; thioether N-14): the pIC50 is 6.77. On the same count and under the same terms, next, `Cc1cccc(C[C@@H]2NC(=O)[C@H](CC(=O)O)NC(=O)[C@H](Cc3ccc(C(=O)O)cc3)NC(=O)[C@H](CCN)NC(=O)CSC[C@@H](C(=O)N[C@@H](CCN)C(=O)NCCCCCCCCCCC(=O)O)NC(=O)[C@H](CO)NC(=O)[C@H](C(C)(C)O)NC(=O)[C@H](CC3CCCCC3)NC(=O)[C@H](CCN)NC(=O)[C@@H](CC(C)C)NC(=O)[C@H](C)N(C)C(=O)[C@H](Cc3ccc(OCC(=O)O)cc3)NC(=O)[C@H](Cc3ccc(-c4ccccc4)cc3)NC(=O)[C@H](Cc3cccs3)NC2=O)c1` [Example 1294] ({CH2CO}-[Dab][Phe(4-COOH)]D[Phe(3-Me)][2Thi][Bip]Y(Carboxymethyl)[NMeA][dL][Dab][Cha][Val(3-OH)]SC[Dab][Aun]-OH; thioether N-14): 7.94. Same read-out and setting: next, `CC(=O)NCCCC[C@@H]1NC(=O)[C@H](C(C)(C)O)NC(=O)[C@H](CC2CCCCC2)NC(=O)[C@H](CCN)NC(=O)[C@@H](CC(C)C)NC(=O)[C@H](C)N(C)C(=O)[C@H](CCC(N)=O)NC(=O)[C@H](Cc2ccc(-c3ccccc3)cc2)NC(=O)[C@H](Cc2ccc(C(=O)O)cc2)NC(=O)[C@H](Cc2cccc(C(F)(F)F)c2)NC(=O)[C@H](CC(=O)O)NC(=O)[C@H](Cc2ccc(OCC(=O)O)cc2)NC(=O)[C@H]([C@H](C)N)NC(=O)CSC[C@@H](C(=O)N[C@@H](CCN)C(=O)NCCOCCOCC(=O)N[C@@H](CCC(=O)NCCOCCOCC(=O)NCCCCCCCCCCCCC(=O)O)C(=O)O)NC1=O` [Example 1202] ({CH2CO}-[Abu(3S-NH2)]Y(Carboxymethyl)D[Phe(3-CF3)][Phe(4-COOH)][Bip]Q[NMeA][dL][Dab][Cha][Val(3-OH)]K(Ac)C[Dab][AEEA][γGlu][AEEA]-{NH(CH2)12COOH}; thioether N-14): 7.80.

The test is the same for the next values; noted with them: PE-labeled PD-L1-Ig 20 nM final, Jurkat-hPD-1 cells; read-out: Jurkat HPD1 PDL1 IC50.
`CC(=O)NCCCC[C@@H]1NC(=O)[C@H](C(C)(C)O)NC(=O)[C@H](CC2CCCCC2)NC(=O)[C@H](CCN)NC(=O)[C@@H](CC(C)C)NC(=O)[C@H](C)N(C)C(=O)[C@H](CCC(N)=O)NC(=O)[C@H](Cc2ccc(-c3ccccc3)cc2)NC(=O)[C@H](Cc2ccc(C(=O)O)cc2)NC(=O)[C@H](Cc2cccc(C)c2)NC(=O)[C@H](CC(=O)O)NC(=O)[C@H](Cc2ccc(OCC(=O)O)cc2)NC(=O)[C@H](Cc2ccc(OCC(=O)O)cc2)NC(=O)CSC[C@@H](C(=O)N[C@@H](CCN)C(=O)NCCOCCOCC(=O)NCCCCCCCCCCCCCCC(=O)O)NC1=O` [Example 2576] ({CH2CO}-Y(Carboxymethyl)Y(Carboxymethyl)D[Phe(3-Me)][Phe(4-COOH)][Bip]Q[NMeA][dL][Dab][Cha][Val(3-OH)]K(Ac)C[Dab][AEEA]-{NH(CH2)14COOH}; thioether N-14): the pIC50 is 6.99. On to `CC(=O)NCC[C@H](NC(=O)[C@@H]1CSCC(=O)N[C@@H]([C@@H](C)O)C(=O)N[C@@H](Cc2ccc(OCC(=O)O)cc2)C(=O)N[C@@H](CC(=O)O)C(=O)N[C@@H](Cc2cccc(C)c2)C(=O)N[C@@H](Cc2ccc(OCC(=O)O)cc2)C(=O)N[C@@H](Cc2ccc(-c3ccccc3)cc2)C(=O)N[C@@H](Cc2ccc(OCC(=O)O)cc2)C(=O)N(C)[C@@H](C)C(=O)N[C@H](CC(C)C)C(=O)N[C@@H](CCNC(C)=O)C(=O)N[C@@H](CC2CCCCC2)C(=O)N[C@@H](C(C)C)C(=O)N[C@@H](CCC(=O)O)C(=O)N1)C(=O)NCCCCCCCC(=O)NCCCCCCCCCCCC(=O)O` [Example 2676] ({CH2CO}-TY(Carboxymethyl)D[Phe(3-Me)]Y(Carboxymethyl)[Bip]Y(Carboxymethyl)[NMeA][dL][Dab](Ac)[Cha]VEC[Dab](Ac)[Aoc][12Ado]-OH; thioether N-14), for which the pIC50 was 6.30.

For orientation: pIC50 means the negative decadic logarithm of the IC50, by convention in mol/L.
